The target of test [1] is T1, Protein cereblon/Tyrosine-protein kinase BTK (Homo sapiens, UniProt Q06187+Q96SW2). As to the kind of experiment: PROTAC activity at BTK/CRBN in human MINO cells assessed as BTK protein degradation at 20 nM by Western blotting analysis. It counts as cell-based. The settings on record: time lower 2.0 hrs, time upper […], TDE = time-dependent effect.
Target sequence in this assay (Q06187 2-659 limits assumed): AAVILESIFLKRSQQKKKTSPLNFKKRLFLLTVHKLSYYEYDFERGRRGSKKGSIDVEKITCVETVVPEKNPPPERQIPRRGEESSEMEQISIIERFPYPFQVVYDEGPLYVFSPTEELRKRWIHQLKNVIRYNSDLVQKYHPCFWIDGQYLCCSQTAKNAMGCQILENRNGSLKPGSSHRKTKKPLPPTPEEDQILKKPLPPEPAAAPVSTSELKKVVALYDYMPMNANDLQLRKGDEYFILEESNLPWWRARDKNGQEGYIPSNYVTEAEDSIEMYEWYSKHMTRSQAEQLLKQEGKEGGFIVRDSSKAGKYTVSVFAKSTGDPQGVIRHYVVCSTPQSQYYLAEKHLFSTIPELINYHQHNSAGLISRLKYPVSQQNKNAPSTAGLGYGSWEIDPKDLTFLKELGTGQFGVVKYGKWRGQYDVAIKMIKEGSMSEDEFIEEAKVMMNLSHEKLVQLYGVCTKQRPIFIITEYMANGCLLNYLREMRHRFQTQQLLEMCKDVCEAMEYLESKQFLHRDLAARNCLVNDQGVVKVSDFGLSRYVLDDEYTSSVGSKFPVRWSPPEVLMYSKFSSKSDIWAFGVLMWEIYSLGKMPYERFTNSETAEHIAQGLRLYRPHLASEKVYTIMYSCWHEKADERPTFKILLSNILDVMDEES
Target sequence in this assay (Q96SW2 whole entry partner): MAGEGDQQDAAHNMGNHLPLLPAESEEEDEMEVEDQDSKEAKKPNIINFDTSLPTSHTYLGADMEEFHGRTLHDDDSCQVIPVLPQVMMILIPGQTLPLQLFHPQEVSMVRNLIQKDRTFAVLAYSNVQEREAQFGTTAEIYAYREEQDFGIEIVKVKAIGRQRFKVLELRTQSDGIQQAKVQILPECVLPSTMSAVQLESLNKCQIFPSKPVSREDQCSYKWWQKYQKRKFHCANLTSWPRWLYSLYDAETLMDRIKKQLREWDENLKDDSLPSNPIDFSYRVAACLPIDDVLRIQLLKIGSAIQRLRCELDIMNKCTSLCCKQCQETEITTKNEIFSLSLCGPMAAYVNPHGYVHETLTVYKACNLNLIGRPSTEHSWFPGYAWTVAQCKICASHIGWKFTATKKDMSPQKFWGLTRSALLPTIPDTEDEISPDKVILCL
For test [2], the target named is T1, Protein cereblon/Tyrosine-protein kinase BTK. The test can be described thus: PROTAC activity at BTK/CRBN in human MINO cells assessed as BTK protein degradation at 20 nM measured after 48 hrs by Western blotting analysis. The test is classed as cell-based. Background: A western blot detects proteins with antibodies after separation by electrophoresis.
Target sequence in this assay (Q06187 2-659 limits assumed): as the sequence (Q06187 2-659 limits assumed) above
Target sequence in this assay (Q96SW2 whole entry partner): as the sequence (Q96SW2 whole entry partner) above
Test [3] has as its target T2, Tyrosine-protein kinase BTK (Homo sapiens, UniProt Q06187). The test can be described thus: Inhibition of BTK (unknown origin) measured after 60 mins incubation by microtiter-plate reader.
The target in test [4] is T1, Protein cereblon/Tyrosine-protein kinase BTK. The test can be described thus: Binding affinity to BTK/CRBN (unknown origin) assessed as ternary complex formation by measuring peak HTRF ratio at wavelength 665/620 nm measured after 60 mins incubation by HTRF assay.
Target sequence in this assay (Q06187 2-659 limits assumed): as the sequence (Q06187 2-659 limits assumed) above
Target sequence in this assay (Q96SW2 whole entry partner): as the sequence (Q96SW2 whole entry partner) above
The target is the same in test [5]. As to the kind of experiment: PROTAC activity at BTK/CRBN in human MINO cells assessed as BTK protein degradation at 20 nM measured after 24 hrs by Western blotting analysis relative to control. It counts as cell-based.
Target sequence in this assay (Q06187 2-659 limits assumed): as the sequence (Q06187 2-659 limits assumed) above
Target sequence in this assay (Q96SW2 whole entry partner): as the sequence (Q96SW2 whole entry partner) above
For test [6] the target is unchanged. As to the kind of experiment: PROTAC activity at BTK/CRBN in human MINO cells assessed as BTK protein degradation by measuring onset time activity at 20 nM by Western blotting analysis. The test is classed as cell-based.
Target sequence in this assay (Q06187 2-659 limits assumed): as the sequence (Q06187 2-659 limits assumed) above
Target sequence in this assay (Q96SW2 whole entry partner): as the sequence (Q96SW2 whole entry partner) above
Test [7] shares this target. As to the kind of experiment: PROTAC activity at BTK/CRBN in human MINO cells assessed as BTK protein degradation half life at 20 nM by Western blotting analysis. The test is classed as cell-based.
Target sequence in this assay (Q06187 2-659 limits assumed): as the sequence (Q06187 2-659 limits assumed) above
Target sequence in this assay (Q96SW2 whole entry partner): as the sequence (Q96SW2 whole entry partner) above
For test [8] the target is unchanged. The test can be described thus: PROTAC activity at BTK/CRBN in human MINO cells assessed as BTK protein degradation measured for 4 hrs by Western blotting analysis. The test is classed as cell-based.
Target sequence in this assay (Q06187 whole entry): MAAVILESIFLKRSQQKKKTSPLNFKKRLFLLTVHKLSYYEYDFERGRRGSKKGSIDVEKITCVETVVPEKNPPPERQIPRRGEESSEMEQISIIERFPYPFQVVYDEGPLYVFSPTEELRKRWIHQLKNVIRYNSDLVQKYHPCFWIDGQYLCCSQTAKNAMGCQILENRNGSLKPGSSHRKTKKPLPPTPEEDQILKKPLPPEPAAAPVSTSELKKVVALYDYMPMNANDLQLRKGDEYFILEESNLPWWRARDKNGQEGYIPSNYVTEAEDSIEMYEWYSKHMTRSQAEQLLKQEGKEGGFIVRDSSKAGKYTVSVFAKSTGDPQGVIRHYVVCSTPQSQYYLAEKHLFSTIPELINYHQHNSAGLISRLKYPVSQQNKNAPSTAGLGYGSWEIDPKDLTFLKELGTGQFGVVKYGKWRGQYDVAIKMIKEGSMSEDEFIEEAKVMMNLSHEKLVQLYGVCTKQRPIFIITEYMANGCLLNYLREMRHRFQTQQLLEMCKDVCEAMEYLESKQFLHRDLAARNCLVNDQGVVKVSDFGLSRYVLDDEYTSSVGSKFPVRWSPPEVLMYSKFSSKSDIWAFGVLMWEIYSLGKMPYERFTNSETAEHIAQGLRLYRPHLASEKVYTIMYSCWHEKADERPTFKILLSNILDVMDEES
Target sequence in this assay (Q96SW2 whole entry): as the sequence (Q96SW2 whole entry partner) above
The target is the same in test [9]. As to the kind of experiment: PROTAC activity at BTK/CRBN in human MINO cells assessed as BTK protein degradation at 100 nM measured after 24 hrs by Western blotting analysis relative to control. It counts as cell-based.
The target is the same in test [10]. The test can be described thus: PROTAC activity at BTK/CRBN in human MINO cells assessed as BTK protein degradation measured for 24 hrs by Western blotting analysis. The test is classed as cell-based.
Target sequence in this assay (Q06187 whole entry): as the sequence (Q06187 whole entry) above
Target sequence in this assay (Q96SW2 whole entry): as the sequence (Q96SW2 whole entry partner) above
The target in a further test is Protein cereblon (Homo sapiens, UniProt Q96SW2). As to the kind of experiment: Inhibition of CRBN (unknown origin) measured after 60 mins incubation by BMG reader.
Chain of Protein cereblon (Q96SW2 whole entry): as the sequence (Q96SW2 whole entry partner) above
Test [11] deals with T2, Tyrosine-protein kinase BTK. The test can be described thus: Binding affinity to BTK (unknown origin) assessed as inhibition constant measured after 60 mins incubation by microtiter-plate reader.
Test [12] has as its target T1, Protein cereblon/Tyrosine-protein kinase BTK. As to the kind of experiment: Binding affinity to BTK/CRBN (unknown origin) assessed as ternary complex formation measured after 60 mins incubation by HTRF assay. A general note: Time-resolved FRET reads energy transfer from a long-lived donor to a nearby acceptor.
Target sequence in this assay (Q06187 whole entry): as the sequence (Q06187 whole entry) above
Target sequence in this assay (Q96SW2 whole entry): as the sequence (Q96SW2 whole entry partner) above
Test [13] shares this target. The test can be described thus: Binding affinity to BTK/CRBN (unknown origin) assessed as ternary complex formation by measuring peak concentration measured after 60 mins incubation by HTRF assay.

Each structure is given as a SMILES string. Calls of active or inactive are those of the source. The calls are words filed in the database; no cut-off is given here.

T2 sequence (Q06187 whole entry): as the sequence (Q06187 whole entry) above

Usually IC50 stands for the point on the concentration scale where inhibition reaches its midpoint. Low values mean greater potency, high ones weaker potency. By DC50 is commonly meant the concentration giving 50% degradation. As usually defined, the Ki is a measure of affinity in units of concentration, obtained from inhibition or displacement. By EC50 is commonly meant the concentration giving half of the maximal effect. Take `Nc1ncnc2c1c(-c1ccc(Oc3ccccc3)cc1)nn2C1CCN(C(=O)CN2CCN(CC3CN(c4ccc5c(c4)C(=O)N(C4CCC(=O)NC4=O)C5=O)C3)CC2)CC1` (centres undefined): the Activity entry in [1] is “Tde”; in test [5], 95%; in [9], 99%; in test [13], 37 nM. Moreover, the result in test [2] was Active. The IC50 turned out to be 95.5 nM in [3] and 285 nM against Protein cereblon. In addition, the Ratio in test [4] stood at 13.1. In test [6], the TIME was under 1 h. For the same molecule, the T1/2 in test [7] is 1.51 h. Moreover, the DC50 in test [8] turned out to be 18.9 nM; in test [10] it was 7.07 nM. The Ki in test [11] was 50.3 nM. Also, the EC50 in [12] was determined as 2.74 nM.

The values are drawn from ChEMBL document CHEMBL5528048, “Discovery of Novel Potent and Fast BTK PROTACs for the Treatment of Osteoclasts-Related Inflammatory Diseases” (J Med Chem, 2024).
